Tested on: Lewis rats
Assay type: in vivo, rat
Procedure: Various animal models of autoimmune encephalomyelitis are known in the art, depending on the method of induction, the strain of the animal and the antigen employed to induce the disease. The impact of bicyclic CB2 ligands was tested in EAE using Lewis rats in which the onset of disease is observed by the appearance of clinical symptoms about 10 days after induction. The disease progress and the clinical score increase and peak around day 15 and spontaneous recovery is observed around day 18 after induction of the disease. The animals (at least 9 per test group at initiation of study, except for the untreated control group that comprised only 5 rats) were maintained on a 12 hours light/12 hours dark regimen, at a constant temperature of 22° C., with food and water ad libitum. EAE was induced in these animals by immunization with s.c. injection to the hind paws of 25 μg of purified guinea pig myelin basic protein (MBP, Sigma) emulsified in 0.1 ml of Complete Freund's Adjuvant (Difco).
Methylprednisolone was used as positive control and it was administered daily for 5 consecutive days i.v. at 30 mg/kg starting from day of disease induction by MBP injection. The results are recorded as clinical score; score of 0 indicates a normal animal with no clinical signs, 0.5 indicates a loss of tonicity in the tail's distal part, 1 indicates whole tail paralysis, 2 indicates paraplegia, 3 indicates quadriplegia, 4 indicates complete body paralysis and moribund state and 5 indicates death. The clinical score of the animals is recorded for 11 days following onset of disease and the area under the curve (AUC) is calculated over this period of time.
Moreover, in a separate study animals were euthanized 15 days after induction of the disease by i.p. injection of 100 mg/kg pentobarbital. Brains and spinal cord were removed and were fixed by overnight incubation with 4% Paraformaldehyde. The cervical segment of the spinal cord was dehydrated using ethanol solutions of increasing concentration and then embedded in paraplast. The spinal cord was then sectioned (10 μm) and staining was performed using hematoxylin and eosin. The stained slides were examined under light microscopy for foci of infiltrating lymphocytes. Number of foci were counted and averaged in 6 sections for each animal. Three groups of at least 4 animals each were tested in this system: untreated, vehicle treated, and animals treated with 0.5 mg/kg of compound A. Results are expressed as average±SD of number of foci.

CCCCCCC(C)(C)c1cc(O)c(C2CC(=O)C3CC2C3(C)C)c(O)c1 (single isomer, unassigned; (-)) [Compound A, (−)-4-[4-(1,1-Dimethyl-heptyl)2,6-dihydroxy-phenyl]-6,6-dimethyl-bicyclo[3.1.1)heptan-2-one]
decrease of infiltration (0.5 mg/kg, 15 days after induction): more than 50% | number of infiltration foci in spinal cord (0.5 mg/kg, 15 days after induction, average±SD): 10±5 foci/section | reduction in the clinical score (1 mg/kg, independent blinded repeat): 30% | reduction in the AUC of the clinical score (1 mg/kg, three consecutive days from onset of disease): 35% | therapeutic index (EAE, 1 mg/kg versus tolerated 40 mg/kg): at least 40
